In patent US12319655B2, “RAF kinase inhibitors and methods of use thereof” (Deciphera Pharmaceuticals, LLC, priority 2021, dated 2025):

Assays:
Miapaca-2 cells [1] = experiment: MiaPaca-2 Cell Proliferation Assay (2); type: cell-based; conditions: Homo sapiens, MIA PaCa-2, single agent
Experimental: MiaPaca-2 Cell Proliferation Assay (2)
Miapaca-2 cells (catalog #CRL-1420) are obtained from the American Type Culture Collect (ATTC, Manassas, VA). Briefly, cells were grown in DMEM supplemented with 10% characterized fetal bovine serum (Invitrogen, Carlsbad, CA), 2.5% New Zealand sourced horse serum and 1% Penicillin/Streptomycin/L-Glutamine at 37° C., 5% CO2, and 95% humidity. Cells are expanded until reaching 70-95% confluency at which point they are sub-cultured or harvested for assay use. A serial dilution of test compound is dispensed into a 384-well black clear bottom plate in triplicate. Seven hundred fifty cells are added per well in 50 μL complete growth medium in the 384-well plate. Plates are incubated for 67-72 h at 37° C., 5% CO2, and 95% humidity. At the end of the incubation, 10 μL of a 440 μM solution of resazurin (Sigma, St. Louis, MO) in PBS is added to each well of the plate and plates are incubated for an additional 5-6 h at 37° C., 5% CO2, and 95% humidity. Plates are read on a Synergy2 or equivalent reader (Biotek, Winooski VT) using an excitation of 540 nm and an emission of 600 nm. Data is analyzed using Prism software (GraphPad, San Diego, CA) to calculate IC50 values.

Miapaca-2 cells [2] = experiment: MiaPaca-2 Combination Cell Proliferation Assay (2) with cobimetinib; type: cell-based; conditions: MiaPaca-2 cell proliferation, read-out: MiaPaca-2 Combo (2) IC50
Experimental: MiaPaca-2 Combination Cell Proliferation Assay (2)
Miapaca-2 cells (catalog #CRL-1420) are obtained from the American Type Culture Collect (ATCC, Manassas, VA). Briefly, cells were grown in DMEM supplemented with 10% characterized fetal bovine serum (Invitrogen, Carlsbad, CA), 2.5% New Zealand sourced horse serum and 1% Penicillin/Streptomycin/L-Glutamine at 37° C., 5% CO2, and 95% humidity. Cells are expanded until reaching 70-95% confluency at which point they are subcultured or harvested for assay use. Using the Beckman Coulter Echo 650, a threefold, 8-point serial dilution of compound was spotted column wise into a 384 well black, clear bottom, tissue culture treated plate. Likewise, a threefold, 8-point serial dilution of cobimetinib was spotted row wise into the 384 well black, clear bottom plate containing compound. DMSO concentration was constant across all wells at 0.4%. Seven hundred fifty cells are added per well in 50 μL complete growth medium in each 384-well plate. Plates are incubated for 67-72 hours at 37° C., 5% CO2, and 95% humidity. At the end of the incubation, 10 μL of a 440 μM solution of resazurin (Sigma, St. Louis, MO) in PBS is added to each well of the plate and plates are incubated for an additional 4-6 hours at 37° C., 5% CO2, and 95% humidity. Plates are read on a Synergy2 or equivalent reader (Biotek, Winooski VT) using an excitation of 540 nm and an emission of 600 nm. Drug synergy was assessed via BLISS analysis in the Combenefit software (Cancer Research UK Cambridge Institute, Cambridge, UK). Data is analyzed using Prism software (Graphpad, San Diego, CA) to calculate IC50 values. Shifts in test compound IC50 values are reported from top-constrained combination therapy curves.

SMILES: CNC(=O)c1cc(-c2cc(-c3cc(NC(=O)c4ccnc(C(C)(C)F)c4)ccc3Cl)ccn2)ccn1 [Example 485]
- IC50 (Miapaca-2 cells [1]): 1000 to 10000 nM

SMILES: Cc1ccc(NC(=O)c2ccnc(C(C)(C)F)c2)cc1-c1cnnc(-c2ccnc(C(N)=O)c2)c1 [Example 486]
- IC50 (Miapaca-2 cells [2]): 1000 to 10000 nM
- IC50 (Miapaca-2 cells [1]): 1000 to 10000 nM

SMILES: CNC(=O)c1cc(-c2cc(-c3cc(NC(=O)c4ccnc(C5(F)CC5)c4)ccc3C)ccn2)ccn1 [Example 487]
- IC50 (Miapaca-2 cells [2]): 100 to 500 nM
- IC50 (Miapaca-2 cells [1]): 1000 to 10000 nM

SMILES: [2H]C([2H])([2H])NC(=O)c1cc(-c2cc(-c3cc(NC(=O)c4ccnc(C(C)(C)F)c4)ccc3C)ccn2)ccn1 [Example 489]
- IC50 (Miapaca-2 cells [2]): 100 to 500 nM
- IC50 (Miapaca-2 cells [1]): 1000 to 10000 nM

SMILES: [2H]C([2H])([2H])NC(=O)c1cc(-c2cc(-c3cc(NC(=O)c4ccnc(C(C)(C)F)c4)ccc3C)cc(C)n2)ccn1 [Example 493]
- IC50 (Miapaca-2 cells [2]): 100 to 500 nM
- IC50 (Miapaca-2 cells [1]): 1000 to 10000 nM

SMILES: CNC(=O)c1cc(-c2cc(-c3cc(NC(=O)c4ccnc(C(C)(C)F)n4)ccc3C)ccn2)ccn1 [Example 494]
- IC50 (Miapaca-2 cells [1]): 1000 to 10000 nM

SMILES: CNC(=O)c1cc(-c2cc(-c3cc(NC(=O)c4cnnc(C(C)(C)F)c4)ccc3C)ccn2)ccn1 [Example 495]
- IC50 (Miapaca-2 cells [1]): 1000 to 10000 nM

SMILES: CNC(=O)c1cc(-c2cc(-c3cc(NC(=O)c4ccnc(C5(F)CC5)c4)ccc3C)cc(C)n2)ccn1 [Example 496]
- IC50 (Miapaca-2 cells [1]): 1000 to 10000 nM

SMILES: CNC(=O)c1cc(-c2cc(-c3cc(NC(=O)c4ccnc(C(C)(C)F)c4)c(F)cc3C)ccn2)ccn1 [Example 497]
- IC50 (Miapaca-2 cells [1]): 1000 to 10000 nM

SMILES: [2H]C([2H])([2H])NC(=O)c1cc(-c2cc(-c3cc(NC(=O)c4ccnc(C5(F)CC5)c4)ccc3C)cc(C)n2)ccn1 [Example 498]
- IC50 (Miapaca-2 cells [1]): 1000 to 10000 nM

SMILES: CNC(=O)c1cc(-c2cc(-c3cc(NC(=O)c4ccnc(C(C)(C)F)c4)ncc3C)ccn2)ccn1 [Example 499]
- IC50 (Miapaca-2 cells [1]): 1000 to 10000 nM

SMILES: Cc1ccc(NC(=O)c2cn(C)nc2C(F)(F)F)cc1-c1cncc(-c2ccnc(NC(=O)C3CC3)c2)c1 [Example 500]
- IC50 (Miapaca-2 cells [1]): 1000 to 10000 nM

SMILES: Cc1ccc(NC(=O)c2ccc(C(F)(F)F)cc2)cc1-c1ccnc(-c2ccnc(NC(=O)C3CC3)c2)c1 [Example 501]
- IC50 (Miapaca-2 cells [1]): 1000 to 10000 nM

SMILES: Cc1ccc(NC(=O)c2cccc(C(F)(F)F)c2)cc1-c1ccnc(-c2ccnc(NC(=O)C3CC3)c2)c1 [Example 502]
- IC50 (Miapaca-2 cells [1]): 500 to 1000 nM

SMILES: Cc1ccc(NC(=O)c2cc(C(F)(F)F)ccc2F)cc1-c1ccnc(-c2ccnc(NC(=O)C3CC3)c2)c1 [Example 503]
- IC50 (Miapaca-2 cells [1]): 1000 to 10000 nM
